The target in test [1] is T1, Tyrosine-protein kinase Mer (Homo sapiens, UniProt Q12866).
T1 sequence (Q12866 whole entry): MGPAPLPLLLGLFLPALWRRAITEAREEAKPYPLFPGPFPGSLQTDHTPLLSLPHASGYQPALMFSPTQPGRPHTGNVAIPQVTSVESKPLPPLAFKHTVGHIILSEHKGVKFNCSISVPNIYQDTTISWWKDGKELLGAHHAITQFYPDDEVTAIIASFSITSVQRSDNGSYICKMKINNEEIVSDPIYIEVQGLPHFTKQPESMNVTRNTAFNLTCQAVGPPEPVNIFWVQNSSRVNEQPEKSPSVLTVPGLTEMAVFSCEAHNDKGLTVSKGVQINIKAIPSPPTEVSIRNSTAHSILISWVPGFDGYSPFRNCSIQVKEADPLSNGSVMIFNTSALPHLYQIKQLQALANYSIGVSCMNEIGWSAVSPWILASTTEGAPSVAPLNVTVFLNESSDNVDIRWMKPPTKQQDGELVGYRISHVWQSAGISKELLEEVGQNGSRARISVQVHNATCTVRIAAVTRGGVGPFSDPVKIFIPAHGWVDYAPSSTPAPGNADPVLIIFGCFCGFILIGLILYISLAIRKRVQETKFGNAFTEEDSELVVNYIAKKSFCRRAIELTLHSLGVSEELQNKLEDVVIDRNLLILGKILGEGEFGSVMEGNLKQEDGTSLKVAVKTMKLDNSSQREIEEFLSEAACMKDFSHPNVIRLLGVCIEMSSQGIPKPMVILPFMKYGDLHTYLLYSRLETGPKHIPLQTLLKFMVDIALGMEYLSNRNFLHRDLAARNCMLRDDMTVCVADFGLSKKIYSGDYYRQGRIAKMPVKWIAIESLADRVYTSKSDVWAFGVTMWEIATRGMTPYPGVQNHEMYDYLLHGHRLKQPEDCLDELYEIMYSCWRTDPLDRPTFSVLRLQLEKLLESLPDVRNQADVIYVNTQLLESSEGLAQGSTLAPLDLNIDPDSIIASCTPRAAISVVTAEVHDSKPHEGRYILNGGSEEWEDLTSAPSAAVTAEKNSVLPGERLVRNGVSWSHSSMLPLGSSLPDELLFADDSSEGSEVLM
Nature of the test: Inhibition of recombinant GST-tagged human Mer (578 to 872 residues) cytoplasmic domain expressed in Baculovirus system using poly (Glu-Ala-Tyr) peptide as substrate after 5 mins in presence of ADP by fluorescence analysis.

The target in test [2] is Tyrosine-protein kinase receptor UFO (Homo sapiens) (UniProt P30530). Nature of the test: Binding affinity to human AXL (R497 to Y821 residues) expressed in bacterial expression system assessed as fraction of unbound kinase to substrate at 1 uM after 1 hr by KinomeScan assay.
Test [3] has as its target T2, Tyrosine-protein kinase Mer (Homo sapiens) (UniProt Q12866).
T2 sequence (whole entry): T1 sequence (Q12866 whole entry)
The experiment in a line: Inhibition of recombinant GST-tagged human Mer (578 to 872 residues) cytoplasmic domain expressed in Baculovirus system using poly (Glu-Ala-Tyr) peptide as substrate after 1.5 hrs by ELISA. On the technique in general: An ELISA detects its analyte on a solid surface through an enzyme-linked reagent.

Test [4] deals with T3, Aurora kinase A (Homo sapiens) (UniProt O14965).
T3 sequence (whole entry): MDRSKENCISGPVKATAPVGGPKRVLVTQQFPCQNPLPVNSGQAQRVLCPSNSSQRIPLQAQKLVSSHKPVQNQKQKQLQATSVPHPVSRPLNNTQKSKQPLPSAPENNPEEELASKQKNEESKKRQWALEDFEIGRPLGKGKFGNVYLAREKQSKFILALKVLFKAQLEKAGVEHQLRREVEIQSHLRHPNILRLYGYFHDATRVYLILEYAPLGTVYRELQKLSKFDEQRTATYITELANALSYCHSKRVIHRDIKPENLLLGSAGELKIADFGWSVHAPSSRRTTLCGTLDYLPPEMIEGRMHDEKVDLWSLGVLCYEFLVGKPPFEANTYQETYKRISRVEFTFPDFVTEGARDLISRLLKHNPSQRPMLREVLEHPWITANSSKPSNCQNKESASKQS
The experiment in a line: Binding affinity to wild-type human partial length AURKA (E122 to K401 residues) expressed in mammalian expression system assessed as fraction of unbound kinase to substrate at 1 uM after 1 hr by KinomeScan assay.

Test [5] deals with T4, Tyrosine-protein kinase receptor TYRO3 (Homo sapiens) (UniProt Q06418).
T4 sequence (whole entry): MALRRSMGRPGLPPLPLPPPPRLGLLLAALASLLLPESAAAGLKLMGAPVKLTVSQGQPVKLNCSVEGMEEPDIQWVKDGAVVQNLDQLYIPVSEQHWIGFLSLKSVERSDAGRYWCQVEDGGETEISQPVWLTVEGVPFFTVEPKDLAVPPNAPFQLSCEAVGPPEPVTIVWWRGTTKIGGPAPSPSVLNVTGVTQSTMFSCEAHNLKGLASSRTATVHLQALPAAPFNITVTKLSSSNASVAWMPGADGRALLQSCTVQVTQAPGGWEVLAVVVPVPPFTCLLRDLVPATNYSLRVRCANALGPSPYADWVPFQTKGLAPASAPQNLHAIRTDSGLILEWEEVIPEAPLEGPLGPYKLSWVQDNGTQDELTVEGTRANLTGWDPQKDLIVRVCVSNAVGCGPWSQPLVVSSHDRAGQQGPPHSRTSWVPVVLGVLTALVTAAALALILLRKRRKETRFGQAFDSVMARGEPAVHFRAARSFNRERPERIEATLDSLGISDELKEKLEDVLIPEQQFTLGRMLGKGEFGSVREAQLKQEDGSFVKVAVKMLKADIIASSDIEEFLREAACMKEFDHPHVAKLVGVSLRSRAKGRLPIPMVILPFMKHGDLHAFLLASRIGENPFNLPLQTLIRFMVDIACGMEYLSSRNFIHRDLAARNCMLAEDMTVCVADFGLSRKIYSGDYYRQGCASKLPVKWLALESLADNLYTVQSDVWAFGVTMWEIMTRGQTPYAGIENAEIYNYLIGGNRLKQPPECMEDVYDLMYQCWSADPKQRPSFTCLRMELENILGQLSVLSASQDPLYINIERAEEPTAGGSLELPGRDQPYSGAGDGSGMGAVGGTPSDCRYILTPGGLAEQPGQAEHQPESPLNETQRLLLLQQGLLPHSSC
The experiment in a line: Binding affinity to wild-type human partial length TYRO3 (S497 to T814 residues) expressed in bacterial expression system assessed as fraction of unbound kinase to substrate at 10 uM after 1 hr by KinomeScan assay.

For test [6], the target named is Epidermal growth factor receptor (Homo sapiens) (UniProt P00533). Nature of the test: Binding affinity to partial length wild type human EGFR (R669 to V1011 residues) expressed in bacterial expression system assessed as fraction of unbound kinase to substrate at 0.1 uM after 1 hr by KinomeScan assay.
Test [7] concerns the target T3, Aurora kinase A (Homo sapiens). The experiment in a line: Binding affinity to wild-type human partial length AURKA (E122 to K401 residues) expressed in mammalian expression system assessed as fraction of unbound kinase to substrate at 10 uM after 1 hr by KinomeScan assay.
Another test relates to A549. Nature of the test: Antiproliferative activity against human A549 cells after 72 hrs by CellTiter-Glo assay. In kind it is functional, cell-based. Background: Cellular ATP, detected with luciferase, serves as a proxy for viable cell number.

Molecules are shown by their SMILES. Calls of active or inactive are those of the source. The rule behind the calls is not given here.

Sequence of Tyrosine-protein kinase receptor UFO (Homo sapiens) (P30530 whole entry, the tested form may be a part): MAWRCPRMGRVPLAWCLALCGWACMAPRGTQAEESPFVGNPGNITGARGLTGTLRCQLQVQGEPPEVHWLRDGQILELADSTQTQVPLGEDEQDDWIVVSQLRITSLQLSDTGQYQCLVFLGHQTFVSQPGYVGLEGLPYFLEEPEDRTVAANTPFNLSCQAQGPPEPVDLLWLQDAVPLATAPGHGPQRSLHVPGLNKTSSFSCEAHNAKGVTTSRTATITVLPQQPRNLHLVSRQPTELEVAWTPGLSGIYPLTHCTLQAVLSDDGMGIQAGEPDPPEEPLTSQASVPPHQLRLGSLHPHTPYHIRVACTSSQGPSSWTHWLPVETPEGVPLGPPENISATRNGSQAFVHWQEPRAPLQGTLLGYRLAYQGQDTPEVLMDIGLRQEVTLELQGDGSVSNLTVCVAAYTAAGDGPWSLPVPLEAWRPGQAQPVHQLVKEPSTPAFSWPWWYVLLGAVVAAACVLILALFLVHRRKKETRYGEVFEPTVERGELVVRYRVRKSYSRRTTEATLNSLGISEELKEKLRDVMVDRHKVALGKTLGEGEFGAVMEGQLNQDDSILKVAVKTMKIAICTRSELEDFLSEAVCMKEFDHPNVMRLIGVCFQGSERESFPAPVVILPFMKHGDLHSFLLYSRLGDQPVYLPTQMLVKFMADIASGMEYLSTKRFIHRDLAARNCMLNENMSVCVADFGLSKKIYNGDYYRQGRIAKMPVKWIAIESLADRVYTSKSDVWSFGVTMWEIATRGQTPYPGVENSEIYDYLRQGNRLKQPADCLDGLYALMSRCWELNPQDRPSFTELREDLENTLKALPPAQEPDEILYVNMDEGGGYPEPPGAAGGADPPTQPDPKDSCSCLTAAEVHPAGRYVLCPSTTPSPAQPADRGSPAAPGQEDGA
Sequence of Epidermal growth factor receptor (Homo sapiens) (P00533 whole entry, the tested form may be a part): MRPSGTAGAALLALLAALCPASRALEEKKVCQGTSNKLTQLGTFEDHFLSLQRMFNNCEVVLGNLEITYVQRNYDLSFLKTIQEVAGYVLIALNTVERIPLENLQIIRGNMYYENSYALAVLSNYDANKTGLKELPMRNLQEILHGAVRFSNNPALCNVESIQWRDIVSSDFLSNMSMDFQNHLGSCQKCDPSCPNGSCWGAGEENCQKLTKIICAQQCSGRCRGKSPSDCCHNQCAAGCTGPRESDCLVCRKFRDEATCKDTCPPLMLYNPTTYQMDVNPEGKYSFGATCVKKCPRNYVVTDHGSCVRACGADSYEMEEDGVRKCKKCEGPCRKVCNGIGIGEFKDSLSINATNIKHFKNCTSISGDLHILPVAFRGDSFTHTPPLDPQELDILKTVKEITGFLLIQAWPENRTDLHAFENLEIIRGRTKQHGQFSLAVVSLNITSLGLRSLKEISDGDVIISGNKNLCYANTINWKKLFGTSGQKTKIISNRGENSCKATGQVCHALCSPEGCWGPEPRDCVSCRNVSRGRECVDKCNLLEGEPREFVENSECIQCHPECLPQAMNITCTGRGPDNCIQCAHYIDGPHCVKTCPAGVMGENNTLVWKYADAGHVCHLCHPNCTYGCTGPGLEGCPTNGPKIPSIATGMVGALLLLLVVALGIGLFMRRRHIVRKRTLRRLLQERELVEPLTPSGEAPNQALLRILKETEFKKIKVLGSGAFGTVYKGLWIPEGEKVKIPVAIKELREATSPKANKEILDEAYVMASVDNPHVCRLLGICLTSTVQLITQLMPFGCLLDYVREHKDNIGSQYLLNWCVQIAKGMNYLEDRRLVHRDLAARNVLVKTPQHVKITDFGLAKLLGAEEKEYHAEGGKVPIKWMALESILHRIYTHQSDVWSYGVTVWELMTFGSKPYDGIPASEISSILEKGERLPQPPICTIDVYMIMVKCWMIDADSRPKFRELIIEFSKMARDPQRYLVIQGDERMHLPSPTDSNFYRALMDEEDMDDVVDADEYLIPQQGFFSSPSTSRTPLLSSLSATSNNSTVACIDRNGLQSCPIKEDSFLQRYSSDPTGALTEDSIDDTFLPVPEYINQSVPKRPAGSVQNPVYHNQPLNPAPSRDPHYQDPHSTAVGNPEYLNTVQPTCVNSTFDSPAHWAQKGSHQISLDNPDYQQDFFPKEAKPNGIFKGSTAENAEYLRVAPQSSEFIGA

`O=C(Nc1ccc(Oc2c(Br)cnc3[nH]cnc23)c(F)c1)c1cccn(-c2ccc(F)cc2)c1=O`: in test [1], the IC50 (in general, the concentration needed to halve the response being measured) was 0.009 µM. Moreover, the Activity in test [2] came to 52%; in test [4], 9%; in test [5], 10%; in test [6], 0%; in test [7], 45%. In test [3], the inhibition entry was “inactive”.
Turning to `Cc1cnc2[nH]cnc2c1Oc1ccc(NC(=O)c2cccn(-c3ccc(F)cc3)c2=O)cc1F`, in test [1], the half-maximal inhibitory concentration (IC50) was greater than 100 µM. Further, the Activity worked out at 67% in test [2]; 6% in test [4]; 5% in test [5]; 1% in test [6]; 41% in test [7]. Besides, in test [3], the inhibition result was “inactive”. The outcome in the test with A549 was inactive.
Regarding `O=C(Nc1ccc(Oc2ccnc3[nH]cnc23)c(F)c1)c1cccn(-c2ccc(F)cc2)c1=O`, the IC50 in test [1] was 0.09 µM. Further, the Activity in test [2] amounted to 90.7%; in test [4], 2%; in test [5] it was 99.8%; in test [6], 0%; in test [7] it was 13%. Besides, the inhibition result in test [3] is “Active”. For the same compound, in the test on A549, the outcome was inactive.
As to `CC(C)c1nc2c(Oc3ccc(NC(=O)c4cccn(-c5ccc(F)cc5)c4=O)cc3F)ccnc2[nH]1`, in test [1], the IC50 came out at 0.04 µM. In addition, the Activity is 90% in test [2]; 2% in test [4]; 92.4% in test [5]; 2% in test [6]; 12% in test [7]. Further, the inhibition result in test [3] was “Active”. In addition, the outcome with A549 was inactive.

These data come from ChEMBL document CHEMBL4261615, “Design, synthesis, biological evaluation and cellular imaging of imidazo[4,5-b]pyridine derivatives as potent and selective TAM inhibitors” (Bioorg Med Chem, 2018).
